Experimental data: US11053204B2, “Pyrimidinyloxy benzene derivatives as herbicides” (FMC Corporation, priority 2015, dated 2021)

Tests used:
Assay type in all cases: in vivo
[1] = tested on: Italian ryegrass (Lolium multiflorum); test: Test A postemergence, visual injury rating; details: 0 is no effect, 100 is complete control
How it was run: (§1)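 Greenhouse pot test, loam/sand soil. Formulation: non-phytotoxic solvent mix plus surfactant. Pre: directed spray onto soil after sowing. Post: plants at 1–2 leaf, 2–10 cm. Rated visually vs untreated controls at ~10 d, 0 (no effect) to 100 (complete control).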

[2] = tested on: barnyardgrass (Echinochloa crus-galli); test: Test A postemergence, visual injury rating; details: 0 is no effect, 100 is complete control
How it was run: as §1

[3] = tested on: blackgrass (Alopecurus myosuroides); test: Test A postemergence, visual injury rating; details: 0 is no effect, 100 is complete control
How it was run: as §1

corn (Zea mays) = test: Test A postemergence, visual injury rating; details: 0 is no effect, 100 is complete control
How it was run: as §1

[4] = tested on: galium (catchweed bedstraw, Galium aparine); test: Test A postemergence, visual injury rating; details: 0 is no effect, 100 is complete control
How it was run: as §1

[5] = tested on: giant foxtail (Setaria faberii); test: Test A postemergence, visual injury rating; details: 0 is no effect, 100 is complete control
How it was run: as §1

kochia (Kochia scoparia) = test: Test A postemergence, visual injury rating; details: 0 is no effect, 100 is complete control
How it was run: as §1

[6] = tested on: pigweed (Amaranthus retroflexus); test: Test A postemergence, visual injury rating; details: 0 is no effect, 100 is complete control
How it was run: as §1

[7] = tested on: ragweed (common ragweed, Ambrosia elatior); test: Test A postemergence, visual injury rating; details: 0 is no effect, 100 is complete control
How it was run: as §1

[8] = tested on: wheat (Triticum aestivum); test: Test A postemergence, visual injury rating; details: 0 is no effect, 100 is complete control
How it was run: as §1

[9] = tested on: lambsquarters (Chenopodium album); test: Test C preemergence, plant response rating; details: Preemergence
How it was run: (§2)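 Visual injury score, 0 = no effect, 100 = complete control, assigned against untreated controls after 13 to 15 d in the greenhouse. Compounds were applied in a surfactant-containing non-phytotoxic solvent mix, preemergence to seeded loam/sand or silt loam soil, or postemergence to 1- to 4-leaf plants (2 to 18 cm).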

[10] = tested on: morningglory (Ipomoea coccinea); test: Test C preemergence, plant response rating; details: Preemergence
How it was run: as §2

[11] = tested on: nutsedge, yellow (yellow nutsedge, Cyperus esculentus); test: Test C preemergence, plant response rating; details: Preemergence
How it was run: as §2

[12] = tested on: velvetleaf (Abutilon theophrasti); test: Test C preemergence, plant response rating; details: Preemergence
How it was run: as §2

[13] = tested on: waterhemp (common waterhemp, Amaranthus rudis); test: Test C preemergence, plant response rating; details: Preemergence
How it was run: as §2

[14] = tested on: wheat (winter wheat, Triticum aestivum); test: Test C preemergence, plant response rating; details: Preemergence
How it was run: as §2

N#Cc1cccc(Oc2ncc(Cl)cn2)c1C(=O)OCCC(F)(F)F [Compound 30]
Ryegrass, Italian plant response rating (0 to 100 scale) ([1]; 125 g ai/ha): 0 | Ryegrass, Italian plant response rating (0 to 100 scale) ([1]; 500 g ai/ha): 0 | Barnyardgrass plant response rating (0 to 100 scale) ([2]; 125 g ai/ha): 0 | Barnyardgrass plant response rating (0 to 100 scale) ([2]; 500 g ai/ha): 20 | Blackgrass plant response rating (0 to 100 scale) ([3]; 125 g ai/ha): 10 | Blackgrass plant response rating (0 to 100 scale) ([3]; 500 g ai/ha): 30 | Corn plant response rating (0 to 100 scale) (corn (Zea mays); 125 g ai/ha): 30 | Corn plant response rating (0 to 100 scale) (corn (Zea mays); 500 g ai/ha): 70 | Galium plant response rating (0 to 100 scale) ([4]; 125 g ai/ha): 60 | Galium plant response rating (0 to 100 scale) ([4]; 500 g ai/ha): 100 | Foxtail, Giant plant response rating (0 to 100 scale) ([5]; 125 g ai/ha): 60 | Foxtail, Giant plant response rating (0 to 100 scale) ([5]; 500 g ai/ha): 100 | Kochia plant response rating (0 to 100 scale) (kochia (Kochia scoparia); 125 g ai/ha): 100 | Kochia plant response rating (0 to 100 scale) (kochia (Kochia scoparia); 500 g ai/ha): 100 | Pigweed plant response rating (0 to 100 scale) ([6]; 125 g ai/ha): 100 | Pigweed plant response rating (0 to 100 scale) ([6]; 500 g ai/ha): 100 | Ragweed plant response rating (0 to 100 scale) ([7]; 125 g ai/ha): 0 | Ragweed plant response rating (0 to 100 scale) ([7]; 500 g ai/ha): 0 | Wheat plant response rating (0 to 100 scale) ([8]; 125 g ai/ha): 0 | Wheat plant response rating (0 to 100 scale) ([8]; 500 g ai/ha): 30 | Plant response rating, Lambsquarters ([9]; 125 g ai/ha, scale of 0 to 100): 55 | Plant response rating, Lambsquarters ([9]; 16 g ai/ha, scale 0 to 100): 10 | Plant response rating, Lambsquarters ([9]; 31 g ai/ha, scale 0 to 100): 25 | Plant response rating, Lambsquarters ([9]; 62 g ai/ha, scale 0 to 100): 30 | Plant response rating, Morningglory ([10]; 125 g ai/ha, scale of 0 to 100): 35 | Plant response rating, Morningglory ([10]; 16 g ai/ha, scale 0 to 100): 0 | Plant response rating, Morningglory ([10]; 31 g ai/ha, scale 0 to 100): 10 | Plant response rating, Morningglory ([10]; 62 g ai/ha, scale 0 to 100): 10 | Plant response rating, Nutsedge, Yellow ([11]; 125 g ai/ha, scale of 0 to 100): 5 | Plant response rating, Nutsedge, Yellow ([11]; 16 g ai/ha, scale 0 to 100): 0 | Plant response rating, Nutsedge, Yellow ([11]; 31 g ai/ha, scale 0 to 100): 0 | Plant response rating, Nutsedge, Yellow ([11]; 62 g ai/ha, scale 0 to 100): 0 | Plant response rating, Velvetleaf ([12]; 125 g ai/ha, scale of 0 to 100): 40 | Plant response rating, Velvetleaf ([12]; 16 g ai/ha, scale 0 to 100): 0 | Plant response rating, Velvetleaf ([12]; 31 g ai/ha, scale 0 to 100): 0 | Plant response rating, Velvetleaf ([12]; 62 g ai/ha, scale 0 to 100): 10 | Plant response rating, Waterhemp ([13]; 125 g ai/ha, scale of 0 to 100): 100 | Plant response rating, Waterhemp ([13]; 16 g ai/ha, scale 0 to 100): 85 | Plant response rating, Waterhemp ([13]; 31 g ai/ha, scale 0 to 100): 100 | Plant response rating, Waterhemp ([13]; 62 g ai/ha, scale 0 to 100): 100 | Plant response rating, Wheat ([14]; 125 g ai/ha, scale of 0 to 100): 10 | Plant response rating, Wheat ([14]; 16 g ai/ha, scale 0 to 100): 0 | Plant response rating, Wheat ([14]; 31 g ai/ha, scale 0 to 100): 0 | Plant response rating, Wheat ([14]; 62 g ai/ha, scale 0 to 100): 0

C=C(Br)COC(=O)c1c(Br)cccc1Oc1ncc(Cl)cn1 [Compound 61]
Ryegrass, Italian plant response rating (0 to 100 scale) ([1]; 125 g ai/ha): 20 | Ryegrass, Italian plant response rating (0 to 100 scale) ([1]; 500 g ai/ha): 80 | Barnyardgrass plant response rating (0 to 100 scale) ([2]; 125 g ai/ha): 100 | Barnyardgrass plant response rating (0 to 100 scale) ([2]; 500 g ai/ha): 100 | Blackgrass plant response rating (0 to 100 scale) ([3]; 125 g ai/ha): 30 | Blackgrass plant response rating (0 to 100 scale) ([3]; 500 g ai/ha): 100 | Corn plant response rating (0 to 100 scale) (corn (Zea mays); 125 g ai/ha): 20 | Corn plant response rating (0 to 100 scale) (corn (Zea mays); 500 g ai/ha): 40 | Galium plant response rating (0 to 100 scale) ([4]; 125 g ai/ha): 60 | Galium plant response rating (0 to 100 scale) ([4]; 500 g ai/ha): 100 | Foxtail, Giant plant response rating (0 to 100 scale) ([5]; 125 g ai/ha): 60 | Foxtail, Giant plant response rating (0 to 100 scale) ([5]; 500 g ai/ha): 100 | Pigweed plant response rating (0 to 100 scale) ([6]; 125 g ai/ha): 40 | Pigweed plant response rating (0 to 100 scale) ([6]; 500 g ai/ha): 100 | Ragweed plant response rating (0 to 100 scale) ([7]; 125 g ai/ha): 10 | Ragweed plant response rating (0 to 100 scale) ([7]; 500 g ai/ha): 30 | Wheat plant response rating (0 to 100 scale) ([8]; 125 g ai/ha): 0 | Wheat plant response rating (0 to 100 scale) ([8]; 500 g ai/ha): 30 | Plant response rating, Lambsquarters ([9]; 125 g ai/ha, scale of 0 to 100): 60 | Plant response rating, Lambsquarters ([9]; 16 g ai/ha, scale 0 to 100): 5 | Plant response rating, Lambsquarters ([9]; 31 g ai/ha, scale 0 to 100): 15 | Plant response rating, Lambsquarters ([9]; 62 g ai/ha, scale 0 to 100): 50 | Plant response rating, Morningglory ([10]; 125 g ai/ha, scale of 0 to 100): 0 | Plant response rating, Morningglory ([10]; 16 g ai/ha, scale 0 to 100): 0 | Plant response rating, Morningglory ([10]; 31 g ai/ha, scale 0 to 100): 0 | Plant response rating, Morningglory ([10]; 62 g ai/ha, scale 0 to 100): 0 | Plant response rating, Nutsedge, Yellow ([11]; 125 g ai/ha, scale of 0 to 100): 0 | Plant response rating, Nutsedge, Yellow ([11]; 16 g ai/ha, scale 0 to 100): 0 | Plant response rating, Nutsedge, Yellow ([11]; 31 g ai/ha, scale 0 to 100): 0 | Plant response rating, Nutsedge, Yellow ([11]; 62 g ai/ha, scale 0 to 100): 0 | Plant response rating, Velvetleaf ([12]; 125 g ai/ha, scale of 0 to 100): 5 | Plant response rating, Velvetleaf ([12]; 16 g ai/ha, scale 0 to 100): 0 | Plant response rating, Velvetleaf ([12]; 31 g ai/ha, scale 0 to 100): 5 | Plant response rating, Velvetleaf ([12]; 62 g ai/ha, scale 0 to 100): 5 | Plant response rating, Waterhemp ([13]; 125 g ai/ha, scale of 0 to 100): 100 | Plant response rating, Waterhemp ([13]; 16 g ai/ha, scale 0 to 100): 50 | Plant response rating, Waterhemp ([13]; 31 g ai/ha, scale 0 to 100): 75 | Plant response rating, Waterhemp ([13]; 62 g ai/ha, scale 0 to 100): 90 | Plant response rating, Wheat ([14]; 125 g ai/ha, scale of 0 to 100): 10 | Plant response rating, Wheat ([14]; 16 g ai/ha, scale 0 to 100): 0 | Plant response rating, Wheat ([14]; 31 g ai/ha, scale 0 to 100): 0 | Plant response rating, Wheat ([14]; 62 g ai/ha, scale 0 to 100): 5
